This note sets out measurements from the Kinase Knowledgebase extract (Sharma et al. 2016).

pIC50: −log10 of the molar value.

The target in this experiment is PIK3CA (human) (UniProt P42336). Put plainly: Assessment of PIK3CA Kinase Activity.
PIK3CA (human), sequence (P42336 whole entry, looked up): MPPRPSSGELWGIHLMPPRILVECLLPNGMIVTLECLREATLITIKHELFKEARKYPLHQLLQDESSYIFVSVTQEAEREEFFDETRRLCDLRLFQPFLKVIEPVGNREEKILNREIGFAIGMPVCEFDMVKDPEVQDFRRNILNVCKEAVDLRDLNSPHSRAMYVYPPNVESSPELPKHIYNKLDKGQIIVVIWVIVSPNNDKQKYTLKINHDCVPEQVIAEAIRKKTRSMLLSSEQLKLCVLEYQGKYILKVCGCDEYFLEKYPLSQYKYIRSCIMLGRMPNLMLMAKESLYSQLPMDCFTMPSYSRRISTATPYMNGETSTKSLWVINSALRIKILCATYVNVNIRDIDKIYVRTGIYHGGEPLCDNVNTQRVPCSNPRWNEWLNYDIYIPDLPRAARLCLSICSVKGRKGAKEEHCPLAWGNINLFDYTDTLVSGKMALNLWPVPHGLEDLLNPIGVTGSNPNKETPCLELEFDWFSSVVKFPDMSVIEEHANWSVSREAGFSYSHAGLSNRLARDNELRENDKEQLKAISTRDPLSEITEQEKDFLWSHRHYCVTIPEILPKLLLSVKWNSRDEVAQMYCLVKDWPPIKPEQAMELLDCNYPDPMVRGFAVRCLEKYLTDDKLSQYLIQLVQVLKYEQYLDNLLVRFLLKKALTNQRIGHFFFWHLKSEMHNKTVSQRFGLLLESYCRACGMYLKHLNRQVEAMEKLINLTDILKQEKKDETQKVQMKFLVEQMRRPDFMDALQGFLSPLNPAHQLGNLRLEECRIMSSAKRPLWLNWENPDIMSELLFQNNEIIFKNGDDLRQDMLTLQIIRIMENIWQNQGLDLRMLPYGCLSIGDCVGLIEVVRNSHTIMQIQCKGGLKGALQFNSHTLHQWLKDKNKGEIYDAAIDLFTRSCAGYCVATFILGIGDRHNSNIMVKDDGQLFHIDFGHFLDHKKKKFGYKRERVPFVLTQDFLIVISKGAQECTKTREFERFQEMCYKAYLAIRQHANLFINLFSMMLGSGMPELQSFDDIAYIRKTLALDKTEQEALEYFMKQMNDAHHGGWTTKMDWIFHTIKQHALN
On to `N#Cc1ccc2c(c1)-c1nc(-c3nc(N)nn3CC(F)(F)F)cn1CCO2`, for which the pIC50 is more than 6.00.

As to `CC(C)(CO)NC(=O)c1ccc2c(c1)-c1nc(-c3ncnn3-c3ccc(F)cc3F)cn1CCO2`, the negative-log IC50 (pIC50) was more than 6.00. The value for `CC(CO)Nc1cc2c(cn1)-c1nc(-c3ncnn3CC(F)(F)F)cn1CCO2` (centres undefined) was more than 6.00; that for `OCCN1CCN(Cc2ccc3c(c2)-n2nc(-c4ncnn4CC(F)(F)F)cc2CCO3)CC1` was more than 6.00.

In turn, `CC(C)n1ncnc1-c1cn2c(n1)-c1ccc(N3CC(N)(CO)C3)cc1OCC2` showed a pIC50 of more than 6.00.

`Clc1ccc(-c2ccc3c(c2)-c2nc(-c4ncnn4-c4ccccc4Cl)cn2CCO3)cc1` had a pIC50 of more than 6.00. With `CC(C)n1ncnc1-c1cn2c(n1)-c1ccc(O[C@@H](CO)C(N)=O)cc1OCC2`, the pIC50 is more than 6.00. As to `COCc1nc(-c2cn3c(n2)-c2ccccc2OCC3)n(C(C)C)n1`, the negative-log IC50 (pIC50) is more than 6.00. As for `FC(F)(F)Cn1ncnc1-c1cc2n(n1)-c1cc(CNc3cnccn3)ccc1OCC2`, the pIC50 is more than 6.00. Consider `COC(=O)c1ccc2c(c1)OCCn1cc(-c3cccc(C(F)(F)F)c3)nc1-2`, for which the negative-log IC50 (pIC50) is more than 6.00. Then `Cc1nc(-c2cn3c(n2)-c2ccc(CC(N)=O)cc2OCC3)n(C(C)C)n1`, with more than 6.00; and `CC(C)n1nc(N)nc1-c1cn2c(n1)-c1ccc(-c3cncc(F)c3)cc1OCC2`, with more than 6.00. The value for `CC(C)n1nc(N)nc1-c1cn2c(n1)-c1ccc(C3CC3)cc1OCC2` was more than 6.00; that for `CC(C)N1CCN(C(=O)c2ccc3c(c2)-c2nc(-c4ncnn4-c4ccccc4Cl)cn2CCO3)CC1` was more than 6.00.

The compound `CC(C)n1ncnc1-c1cn2c(n1)-c1cnc(N3CC=C[C@H]3C(N)=O)cc1OCC2` gave a pIC50 of more than 6.00. Regarding `CC(C)n1cnnc1-n1cc2c(n1)-c1ccccc1OCC2`, the pIC50 is more than 6.00.

Compound `CC(C)n1ncnc1-n1cc2c(n1)-c1cc(-c3cn[nH]c3)ccc1OCC2` gave a pIC50 of more than 6.00. In turn, `CC(C)n1ncnc1-c1cn2c(n1)-c1ccc(C3CN(C(C)(C)C(N)=O)C3)cc1OCC2` showed a pIC50 of more than 6.00. Compound `c1cn(CCN2CCOCC2)c(-c2cn3c(n2)-c2cc(-c4cn[nH]c4)ccc2OCC3)n1` showed a pIC50 of more than 6.00. The value for `CC(C)n1ncnc1-c1cn2c(n1)-c1ccc(-c3cnc(N)nc3)cc1OCC2` was more than 6.00; that for `CC(C)n1ncnc1-c1cn2c(n1)-c1ccc(C3CN(C(=O)C4(N)CC4)C3)cc1OCC2` was more than 6.00. `CC(C)CC(Oc1ccc2c(c1)OCCn1cc(-c3ncnn3C(C)C)nc1-2)C(N)=O` (centres undefined) showed a pIC50 of more than 6.00.

Regarding `CC(C)n1ncnc1-c1cn2c(n1)-c1cnc(N3CCC[C@H]3C(N)=O)cc1OCC2`, the pIC50 was more than 6.00. The compound `NC(=O)c1ccc2c(c1)OCCc1cn(-c3ncnn3-c3ccc(F)cc3F)nc1-2` showed a pIC50 of more than 6.00. Take `CNC(=O)c1ccc2c(c1)OCCn1cc(-c3ncnn3-c3ccccc3Cl)nc1-2`: the negative-log IC50 (pIC50) is more than 6.00.

On to `CC(C)n1ncnc1-c1cn2c(n1)-c1ccc(OCC3(N)COC3)cc1OCC2`, for which the negative-log IC50 (pIC50) is more than 6.00. With `Nc1ccc2c(c1)OCCn1cc(-c3ncnn3CC(F)(F)F)nc1-2`, the pIC50 was more than 6.00. Turning to `CCc1ccccc1-c1ccc2c(c1)OCCn1cc(-c3ncnn3C(C)C)nc1-2`, the pIC50 was more than 6.00. The value for `Cc1nc(-c2cn3c(n2)-c2cnc(N4CCCC4C4CCCCN4C)cc2OCC3)n(CC(F)(F)F)n1` (centres undefined) was more than 6.00; that for `CCOc1ccc2c(c1)OCCn1cc(-c3ncnn3C(C)C)nc1-2` was more than 6.00.

`CC(C)n1ncnc1-c1cn2c(n1)-c1cc(Br)ccc1OCC2`: the negative-log IC50 (pIC50) was more than 6.00. Then `CC(C)n1ccnc1-c1cn2c(n1)-c1cnc(N3CCC[C@H]3C(N)=O)cc1OCC2`, with more than 6.00; and `CC(C)n1ncnc1-c1cn2c(n1)-c1ccc(CN(C)C(N)=O)cc1OCC2`, with more than 6.00; and `CC(C)n1ncnc1-c1cc2n(n1)-c1cc(C(=O)NCC(C)(C)O)ccc1OCC2`, with more than 6.00.

`CNC(=O)CN1CCN(c2ccc3c(n2)OCCn2cc(-c4ncnn4C(C)C)nc2-3)CC1` showed a pIC50 of more than 6.00. The compound `CC(C)n1ncnc1-c1cn2c(n1)-c1cnc(NCc3ccn[nH]3)cc1OCC2` had a pIC50 of more than 6.00. In turn, `CC(=O)Nc1ccc(-c2ccc3c(c2)OCCn2cc(-c4nc(C)nn4C(C)C)nc2-3)cn1` gave a pIC50 of more than 6.00. Turning to `CC(C)n1nc(N)nc1-c1cn2c(n1)-c1ccc(-c3ccc(Cl)cc3)cc1OCC2`, the pIC50 is more than 6.00.

Take `CC(C)n1ncnc1-c1cn2c(n1)-c1cnc(NCC(N)=O)cc1OCC2`: the pIC50 is more than 6.00.

Regarding `CC(C)n1nc(N)nc1-c1cn2c(n1)-c1cc(C(F)(F)F)ccc1OCC2`, the pIC50 was more than 6.00. For `Cc1ncc(-c2ccc3c(c2)OCCn2cc(-c4ncnn4C(C)C)nc2-3)[nH]1`, the pIC50 was more than 6.00. Compound `CC(C)n1ncnc1-c1cn2c(n1)-c1ccc(N3CCCCC3C(N)=O)cc1OCC2` (centres undefined) gave a pIC50 of more than 6.00.

`CC(C)n1ncnc1-c1cn2c(n1)-c1ccc(N(C)[C@@H](C)C(N)=O)cc1OCC2`: the pIC50 is more than 6.00. The value for `CC(C)n1ncnc1-c1cn2c(n1)-c1cnc(Cl)cc1OCC2` was more than 6.00; that for `CNc1ccc2c(n1)OCCn1cc(-c3ncnn3C(C)C)nc1-2` was more than 6.00. Then `CC(C)n1nc(CO)nc1-c1cn2c(n1)-c1ccccc1OCC2`, with more than 6.00. The compound `CC(C)n1ncnc1-c1cn2c(n1)-c1ccc(OC3CC3)cc1OCC2` gave a pIC50 of more than 6.00.

The compound `CC(C)N(CCO)C(=O)c1cc2n(n1)-c1ccccc1OCC2` had a pIC50 of more than 6.00.

As to `CC(C)n1ncnc1-c1cn2c(n1)-c1cc(-c3ccc[nH]c3=O)ccc1OCC2`, the negative logarithm of the IC50 (pIC50) is more than 6.00. The compound `CC(C)n1nccc1-c1cn2c(n1)CCOc1cc(C(N)=O)cnc1-2` had a negative logarithm of the IC50 (pIC50) of more than 6.00. Consider `CC(C)n1ncnc1-c1cn2c(n1)-c1ccc([C@H]3C[C@H]4CC[C@@H](C3)N4CC(N)=O)cc1OCC2`, for which the pIC50 was more than 6.00. `CC(C)n1ncnc1-c1cn2c(n1)-c1cc(-c3cncnc3)ccc1OCC2` had a pIC50 of more than 6.00. Then `CC(C)n1ncnc1-c1cn2c(n1)-c1ccncc1OCC2`, with more than 6.00; and `Cc1nc(-c2cn3c(n2)-c2ccc(N4CC[C@H]4C(N)=O)cc2OCC3)n(CC(F)(F)F)n1`, with more than 6.00. Regarding `CC(C)n1ncnc1-c1cn2c(n1)-c1cnc(N(C)CC(N)=O)cc1OCC2`, the pIC50 was more than 6.00. `CC(C)(Oc1ccc2c(c1)OCCn1cc(-c3ncnn3CC(F)(F)F)nc1-2)C(N)=O` showed a pIC50 of more than 6.00. `Nc1nc(-c2cn3c(n2)-c2cc(C4CC4)ccc2OCC3)n(CC(F)(F)F)n1`: the pIC50 was more than 6.00. For the compound `CC(C)n1ccnc1-c1cn2c(n1)-c1ccc(-c3cnn(CC(C)(C)O)c3)cc1OCC2`, the pIC50 is more than 6.00. Then `CC(C)(CO)NC(=O)c1ccc2c(c1)-c1nc(-c3ncnn3CC(F)(F)F)cn1CCO2`, with more than 6.00. `CC(C)n1ncnc1-c1cn2c(n1)-c1ccc(-c3ccccc3S(C)(=O)=O)cc1OCC2` had a pIC50 of more than 6.00. `CC(C)n1ncnc1-c1cn2c(n1)-c1ccc(C3CCN(CC(F)(F)F)CC3)cc1OCC2` showed a pIC50 of more than 6.00.

In the case of `CC(C)n1nccc1-c1cn2c(n1)-c1ccc(C(N)=O)cc1OCC2`, the pIC50 was more than 6.00. For `Cc1nc(-c2cn3c(n2)-c2cc(-c4ccc(=O)[nH]c4)ccc2OCC3)n(C(C)C)n1`, the pIC50 is more than 6.00. Compound `NC(=O)[C@@H]1COCCN1c1ccc2c(c1)OCCn1cc(-c3ncnn3CC(F)(F)F)nc1-2` showed a pIC50 of more than 6.00.
